What was measured:
Type in all cases: in vivo
[1] = tested on: Spodoptera littoralis (Egyptian Cotton Leaf Worm); assay: Spodoptera littoralis (Egyptian Cotton Leaf Worm), sprayed cotton leaf discs; details: foliar, 72 h, application rate of 200 ppm, L1 larvae on sprayed cotton leaf discs, 3 days after infestation, read-out: control (mortality, anti-feeding effect or growth inhibition)
Description: Example B8: Spodoptera littoralis (Egyptian Cotton Leaf Worm)
Cotton leaf discs were placed onto agar in 24-well microtiter plates and sprayed with aqueous test solutions prepared from 10'000 ppm DMSO stock solutions. After drying the leaf discs were infested with five L1 larvae. The samples were assessed for mortality, anti-feeding effect, and growth inhibition in comparison to untreated samples 3 days after infestation. Control of Spodoptera littoralis by a test sample is given when at least one of the categories mortality, anti-feedant effect, and growth inhibition is higher than the untreated sample.

[2] = tested on: Nilaparvata lugens (Brown Plant Hopper); assay: Nilaparvata lugens (Brown Plant Hopper): Larvicide, Systemic into Water; details: 168 h, test rate of 12.5 ppm, rice plants in nutritive solution, N3 nymphs, 7 days after infestation
Description: Example B12: Nilaparvata lugens (Brown Plant Hopper): Larvicide, Systemic into Water
Rice plants cultivated in a nutritive solution were treated with the diluted test solutions into nourishing cultivation system. 1 day after application plants were infested with ˜20 N3 nymphs. 7 days after infestation samples were assessed for mortality and growth regulation.

[3] = tested on: Plutella xylostella (Diamond Back Moth); assay: Plutella xylostella (Diamond Back Moth), treated artificial diet; details: 192 h, application rate of 200 ppm, eggs on treated artificial diet, 8 days after infestation, read-out: effect in at least one of the two categories (mortality or growth inhibition)
Description: Example B5: Plutella xylostella (Diamond Back Moth)
24-well microtiter plates with artificial diet were treated with aqueous test solutions prepared from 10'000 ppm DMSO stock solutions by pipetting. After drying, Plutella eggs were pipetted through a plastic stencil onto a gel blotting paper and the plate was closed with it. The samples were assessed for mortality and growth inhibition in comparison to untreated samples 8 days after infestation.

[4] = tested on: Myzus persicae (Green Peach Aphid); assay: Myzus persicae (Green Peach Aphid): Feeding/Contact Activity; details: foliar, 144 h, application rate of 200 ppm, aphid population of mixed ages on sprayed sunflower leaf discs, 6 days after infestation
Description: Example B6: Myzus persicae (Green Peach Aphid): Feeding/Contact Activity
Sunflower leaf discs were placed onto agar in a 24-well microtiter plate and sprayed with aqueous test solutions prepared from 10'000 ppm DMSO stock solutions. After drying, the leaf discs were infested with an aphid population of mixed ages. The samples were assessed for mortality 6 days after infestation.

[5] = tested on: Diabrotica Balteata (Corn Root Worm); assay: Diabrotica balteata (Corn Root Worm), sprayed maize sprouts; details: 96 h, application rate of 200 ppm, L2 larvae on sprayed maize sprouts, 4 days after infestation, read-out: effect in at least one of the two categories (mortality or growth inhibition)
Description: Example B2: Diabrotica Balteata (Corn Root Worm)
Maize sprouts placed onto an agar layer in 24-well microtiter plates were treated with aqueous test solutions prepared from 10'000 ppm DMSO stock solutions by spraying. After drying, the plates were infested with L2 larvae (6 to 10 per well). The samples were assessed for mortality and growth inhibition in comparison to untreated samples 4 days after infestation.

[6] = tested on: Euschistus heros (Neotropical Brown Stink Bug); assay: Euschistus heros (Neotropical Brown Stink Bug), sprayed soybean leaves; details: 120 h, application rate of 200 ppm, N2 nymphs on sprayed soybean leaves, 5 days after infestation, read-out: effect in at least one of the two categories (mortality or growth inhibition)
Description: Example B3: Euschistus heros (Neotropical Brown Stink Bug)
Soybean leaves on agar in 24-well microtiter plates were sprayed with aqueous test solutions prepared from 10'000 ppm DMSO stock solutions. After drying the leaves were infested with N2 nymphs. The samples were assessed for mortality and growth inhibition in comparison to untreated samples 5 days after infestation.

[7] = tested on: Myzus persicae (Green Peach Aphid); assay: Myzus persicae (Green Peach Aphid): Systemic Activity; details: 144 h, test rate of 24 ppm, roots of infested pea seedlings placed into test solutions, 6 days
Description: Example B7: Myzus persicae (Green Peach Aphid): Systemic Activity
Roots of pea seedlings infested with an aphid population of mixed ages were placed directly into aqueous test solutions prepared from 10'000 DMSO stock solutions. The samples were assessed for mortality 6 days after placing seedlings into test solutions.

[8] = tested on: Bemisia tabaci (Cotton White Fly); assay: Bemisia tabaci (Cotton White Fly): Feeding/Contact Activity; details: foliar, 144 h, application rate of 200 ppm, adult white flies on sprayed cotton leaf discs, 6 days after incubation
Description: Example B1: Bemisia tabaci (Cotton White Fly): Feeding/Contact Activity
Cotton leaf discs were placed on agar in 24-well microtiter plates and sprayed with aqueous test solutions prepared from 10'000 ppm DMSO stock solutions. After drying the leaf discs were infested with adult white flies. The samples were checked for mortality 6 days after incubation.

CCS(=O)(=O)c1cccnc1N1Cc2cnc(C(F)(F)F)cc2C1=O [Compound P1, 2-(3-ethylsulfonyl-2-pyridyl)-6-(trifluoromethyl)-3H-pyrrolo[3,4-c]pyridin-1-one]
≥ 80%: percent control (mortality, anti-feedant effect or growth inhibition) at 200 ppm [1] | mortality at 12.5 ppm [2] | percent effect (mortality or growth inhibition) at 200 ppm [3] | mortality at 200 ppm [4] | percent effect (mortality or growth inhibition) at 200 ppm [5] | percent effect (mortality or growth inhibition) at 200 ppm [6] | mortality at 24 ppm [7]

CCS(=O)(=O)c1cc(Br)cnc1N1Cc2cnc(C(F)(F)F)cc2C1=O [Compound P7, 2-(5-bromo-3-ethylsulfonyl-2-pyridyl)-6-(trifluoromethyl)-3H-pyrrolo[3,4-c]pyridin-1-one]
≥ 80%: percent control (mortality, anti-feedant effect or growth inhibition) at 200 ppm [1] | percent effect (mortality or growth inhibition) at 200 ppm [3] | mortality at 200 ppm [4] | percent effect (mortality or growth inhibition) at 200 ppm [5] | mortality at 200 ppm [8]

CCS(=O)(=O)c1cc(C2CC2)cnc1N1Cc2cnc(C(F)(F)F)cc2C1=O [Compound P14, 2-(5-cyclopropyl-3-ethylsulfonyl-2-pyridyl)-6-(trifluoromethyl)-3H-pyrrolo[3,4-c]pyriclin-1-one]
≥ 80%: percent control (mortality, anti-feedant effect or growth inhibition) at 200 ppm [1] | percent effect (mortality or growth inhibition) at 200 ppm [3] | mortality at 200 ppm [4] | percent effect (mortality or growth inhibition) at 200 ppm [5] | percent effect (mortality or growth inhibition) at 200 ppm [6] | mortality at 24 ppm [7]

CCS(=O)(=O)c1ccc(C2CC2)nc1N1Cc2cnc(C(F)(F)F)cc2C1=O [Compound P15, 2-(6-cyclopropyl-3-ethylsulfonyl-2-pyridyl)-6-(trifluoromethyl)-3H-pyrrolo[3,4-c]pyriclin-1-one]
≥ 80%: percent control (mortality, anti-feedant effect or growth inhibition) at 200 ppm [1] | percent effect (mortality or growth inhibition) at 200 ppm [3] | mortality at 200 ppm [4] | percent effect (mortality or growth inhibition) at 200 ppm [5] | percent effect (mortality or growth inhibition) at 200 ppm [6] | mortality at 24 ppm [7]

CCS(=O)(=O)c1ccc(-c2ncccn2)nc1N1Cc2cnc(C(F)(F)F)cc2C1=O [Compound P16, 2-(3-ethylsulfonyl-6-pyrimidin-2-yl-2-pyridyl)-6-(trifluoromethyl)-3H-pyrrolo[3,4-c]pyriclin-1-one]
≥ 80%: percent control (mortality, anti-feedant effect or growth inhibition) at 200 ppm [1] | percent effect (mortality or growth inhibition) at 200 ppm [3] | mortality at 200 ppm [4] | percent effect (mortality or growth inhibition) at 200 ppm [5] | percent effect (mortality or growth inhibition) at 200 ppm [6] | mortality at 24 ppm [7]

CCS(=O)(=O)c1ccc(N2CCOC2=O)nc1N1Cc2cnc(C(F)(F)F)cc2C1=O [Compound P17, 3-[5-ethylsulfonyl-6-[1-oxo-6-(trifluoromethyl)-3H-pyrrolo[3,4-c]pyridin-2-yl]-2-pyridyl]oxazolidin-2-one]
≥ 80%: percent control (mortality, anti-feedant effect or growth inhibition) at 200 ppm [1] | percent effect (mortality or growth inhibition) at 200 ppm [3] | mortality at 200 ppm [4] | percent effect (mortality or growth inhibition) at 200 ppm [5] | mortality at 24 ppm [7]

CCC(=O)N(C)c1ccc(S(=O)(=O)CC)c(N2Cc3cnc(C(F)(F)F)cc3C2=O)n1 [Compound P19, N-[5-ethylsulfonyl-6-[1-oxo-6-(trifluoromethyl)-3H-pyrrolo[3,4-c]pyridin-2-yl]-2-pyridyl]-N-methyl-propanamide]
≥ 80%: percent control (mortality, anti-feedant effect or growth inhibition) at 200 ppm [1] | percent effect (mortality or growth inhibition) at 200 ppm [3] | mortality at 200 ppm [4] | percent effect (mortality or growth inhibition) at 200 ppm [5] | percent effect (mortality or growth inhibition) at 200 ppm [6] | mortality at 24 ppm [7]

CCS(=O)(=O)c1ccc(N(C)C(C)=O)nc1N1Cc2cnc(C(F)(F)F)cc2C1=O [Compound P20, N-[5-ethylsulfonyl-6-[1-oxo-6-(trifluoromethyl)-3H-pyrrolo[3,4-c]pyridin-2-yl]-2-pyridyl]-N-methyl-acetamide]
≥ 80%: percent control (mortality, anti-feedant effect or growth inhibition) at 200 ppm [1] | percent effect (mortality or growth inhibition) at 200 ppm [3] | mortality at 200 ppm [4] | percent effect (mortality or growth inhibition) at 200 ppm [5] | percent effect (mortality or growth inhibition) at 200 ppm [6] | mortality at 24 ppm [7]

CCS(=O)(=O)c1cccnc1N1Cc2ccc(C(F)(F)F)cc2C1=O [Compound P21, 2-(3-ethylsulfonyl-2-pyridyl)-6-(trifluoromethyl)isoindolin-1-one]
≥ 80%: percent control (mortality, anti-feedant effect or growth inhibition) at 200 ppm [1] | percent effect (mortality or growth inhibition) at 200 ppm [3] | mortality at 200 ppm [4] | percent effect (mortality or growth inhibition) at 200 ppm [5] | percent effect (mortality or growth inhibition) at 200 ppm [6] | mortality at 200 ppm [8] | mortality at 24 ppm [7]

CCS(=O)(=O)c1cccnc1N1Cc2ncc(C(F)(F)F)cc2C1=O [Compound P22, 6-(3-ethylsulfonyl-2-pyridyl)-3-(trifluoromethyl)-7H-pyrrolo[3,4-b]pyridin-5-one]
≥ 80%: percent control (mortality, anti-feedant effect or growth inhibition) at 200 ppm [1] | percent effect (mortality or growth inhibition) at 200 ppm [3] | mortality at 200 ppm [4] | percent effect (mortality or growth inhibition) at 200 ppm [5] | mortality at 24 ppm [7]

CCS(=O)(=O)c1cccnc1N1Cc2ccc(S(=O)(=O)C(F)(F)F)cc2C1=O [Compound P23, 2-(3-ethylsulfonyl-2-pyridyl)-6-(trifluoromethylsulfonyl)isoindolin-1-one]
≥ 80%: percent control (mortality, anti-feedant effect or growth inhibition) at 200 ppm [1] | percent effect (mortality or growth inhibition) at 200 ppm [3] | mortality at 200 ppm [4] | percent effect (mortality or growth inhibition) at 200 ppm [5] | percent effect (mortality or growth inhibition) at 200 ppm [6] | mortality at 200 ppm [8] | mortality at 24 ppm [7]

CCS(=O)(=O)c1cccnc1N1Cc2ccc(OC(F)(F)F)cc2C1=O [Compound P24, 2-(3-ethylsulfonyl-2-pyridyl)-6-(trifluoromethoxy)isoindolin-1-one]
≥ 80%: percent control (mortality, anti-feedant effect or growth inhibition) at 200 ppm [1] | percent effect (mortality or growth inhibition) at 200 ppm [3] | mortality at 200 ppm [4] | percent effect (mortality or growth inhibition) at 200 ppm [5]

CCS(=O)(=O)c1cc(C2(C#N)CC2)cnc1N1Cc2ccc(OC(F)(F)F)cc2C1=O [Compound P25, 1-[5-ethylsulfonyl-6-[1-oxo-6-(trifluoromethoxy)isoindolin-2-yl]-3-pyridyl]cyclopropanecarbonitrile]
≥ 80%: percent control (mortality, anti-feedant effect or growth inhibition) at 200 ppm [1] | percent effect (mortality or growth inhibition) at 200 ppm [3] | mortality at 200 ppm [4] | percent effect (mortality or growth inhibition) at 200 ppm [5] | percent effect (mortality or growth inhibition) at 200 ppm [6] | mortality at 200 ppm [8]

CCS(=O)(=O)c1cc(C2(C#N)CC2)cnc1N1Cc2ccc(C(F)(F)F)cc2C1=O [Compound P26]
≥ 80%: percent control (mortality, anti-feedant effect or growth inhibition) at 200 ppm [1] | percent effect (mortality or growth inhibition) at 200 ppm [3] | mortality at 200 ppm [4] | percent effect (mortality or growth inhibition) at 200 ppm [5] | percent effect (mortality or growth inhibition) at 200 ppm [6] | mortality at 200 ppm [8]

CCS(=O)(=O)c1cc(C(C)(C)C#N)cnc1N1Cc2ncc(C(F)(F)F)cc2C1=O [Compound P27, 2-[5-ethylsulfonyl-6-[5-oxo-3-(trifluoromethyl)-7H-pyrrolo[3,4-b]pyridin-6-yl]-3-pyridyl]-2-methyl-propanenitrile]
≥ 80%: percent control (mortality, anti-feedant effect or growth inhibition) at 200 ppm [1] | percent effect (mortality or growth inhibition) at 200 ppm [3] | percent effect (mortality or growth inhibition) at 200 ppm [5] | mortality at 200 ppm [8] | mortality at 24 ppm [7]

Source: patent publication US12538924B2, “Pesticidally active heterocyclic derivatives with sulfur containing substituents” (SYNGENTA CROP PROTECTION AG, priority 2019, dated 2026)
